Here are results for two compounds from PubChem BioAssay AID602482 (Sanford-Burnham Center for Chemical Genomics, 2012).

The source made the active and inactive calls.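 How the source made its calls: active means compounds whose mean concentration giving half-maximal cell killing is 20 µM or lower; inactive means the rest.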 Bounds are passed on as bounds.

This test relates to NTR1-U2OS viability, ATPLite luminescence, 24 h. In words: U2OS cell viability loss by ATP – luminescence, ATPLite, cytotoxicity control for NTR1 agonist project, SAR follow-up (AID 602482). (In general: In ATP-based viability assays light output follows the ATP content of the culture.)

In the case of `COc1cccc(OC)c1-c1nc(C(=O)N[C@@H](CC(C)C)C(=O)O)cn1-c1ccnc2cc(Cl)ccc12`, the IC50 (commonly the concentration that inhibits the measured activity by half) was > 80 µM (inactive).

On to `COc1cc2nc(C3CC3)nc(N3CCN(c4ccccc4OC)CC3)c2cc1OC`, for which the IC50 is 25.4 µM (inactive).
